Measurements as given in PMC8322070, “A novel orally active HDAC6 inhibitor T-518 shows a therapeutic potential for Alzheimer’s disease and tauopathy in mice” (Scientific Reports, 2021).
Where two headings read alike, the source gives them in different places.

Legend:
[1] = tested on: Histone H3 acetylation in mouse primary neural cultures; test: Histone H3 acetylation in mouse primary neural culture (Western blotting); assay type: cell-based; conditions: DIV6 mouse primary neural culture, 3 and 30 μM, 24 h
Method: (§1) T-518, ACY-738, Ricolinostat, and Tubastatin A were synthesized in Takeda. For in vitro cellular experiments, the compounds were solubilized with DMSO and diluted in the culture medium at the indicated concentrations. For in vivo experiments, the compound was reconstituted in 0.5% methylcellulose and administered orally at the indicated doses. After administration, mouse hippocampus was isolated and homogenized in RIPA extraction buffer (50 mM Tris–HCl, 150 mM NaCl, 1% NP-40, 0.5% sodium deoxycholate, and 0.1% SDS, pH 8.0) supplemented with protease and phosphatase inhibitor cocktail (Thermo Fischer, Waltham, MA, USA). The homogenate was centrifuged at 10,000g for 15 min and the supernatant was taken as the RIPA-soluble fraction.
Primary cortical neurons were prepared from E14 C57BL/6J mouse embryos (CLIEA Japan, Inc., Tokyo, Japan) using papain-containing Neuron Dissociation Solutions (Fujifilm Wako, Tokyo, Japan). Isolated cells were suspended in Neurobasal Medium containing B-27 (Thermo Fisher) and seeded on poly-D-lysine-coated plates (Corning, NY, USA) under 5% CO2 at 37 °C for 6 days in vitro (DIV) prior to evaluation of HDAC6 inhibitors. Cells were treated with HDAC6 inhibitors at the indicated concentrations for 24 h and lysed in RIPA extraction buffer (50 mM Tris–HCl, 150 mM NaCl, 1% NP-40, 0.5% sodium deoxycholate, and 0.1% SDS, pH 8.0) supplemented with protease and phosphatase inhibitor cocktail (Thermo Fisher).
Cell lysate or in vivo protein samples were separated by 10% SDS-PAGE, then electrophoretically transferred to 0.45 μm poly-vinylidene difluoride membranes (Millipore). Membranes were blocked for 1 h in Blocking Reagent (TOYOBO, Osaka, Japan), probed with primary antibodies followed by labeling with HRP-coupled secondary antibodies (Amersham, Piscataway, NJ), and then visualized using chemiluminescence reagent (ECL; Amersham). Images were captured using ImageQuant LAS 4000 (GE healthcare Bio-Sciences, Marlborough, MA, USA). Quantitative densitometric analyses were conducted using ImageQuant TL (GE healthcare Bio-Sciences). The protocol was slightly modified for detection of HDAC6 in cortex. Briefly, cerebral cortex was homogenized in RIPA buffer supplemented with 1 μM microstatin, 1 μM MG115, 40 μM Leupeptin, 100 μM ABSF, and 2 mM sodium orthovanadate, separated by 7.5–15% gradient SDS-PAGE and electrophoretically transferred to 0.45 μm poly-vinylidene difluoride membranes (Millipore). Membranes were blocked for 1 h with ECL Prime Blocking Reagent (Amersham, Piscataway, NJ) prior to immunoblotting, visualization, and densitometry as described above.

P301S tau Tg mice = test: Novel object recognition test; assay type: in vivo, mouse; conditions: 1 and 3 mg/kg for 2 weeks
Method: as §1
The effect of T-518 on behavioral function was examined using the novel object recognition test: The box and objects used were purchased from BrainScience Idea (Osaka, Japan). The 30 × 30 × 35 cm gray-colored test box was used. The two objects used were pyramidal, white-colored, and ceramic (object A and A′) and cylindrical, silver, and aluminum (object B). In the acquisition phase, the identical objects (objects A and A′) were symmetrically placed in the box. Each animal was placed in the box for 5 min followed by a 24-h retention interval in the home cage. […] Time spent exploring the objects were measured during both phases. […]

[2] = In vivo pharmacokinetics in plasma and hippocampus (LC-MS/MS); set-up: species or system C57BL mice; conditions: 3 mg/kg, po
Method: as §1
The compound concentration was measured by the method previously reported with modification. Briefly, the hippocampus tissues from treated mice were isolated and homogenized in 4 volumes of saline under ice-cold conditions and stored at − 80 °C until liquid chromatography-tandem mass spectrometry (LC–MS/MS) analysis. Before analysis, samples were thawed gently on ice and mixed with three volumes of acetonitrile. The acetonitrile mixtures were vortexed and centrifuged for supernatant collection. The supernatant was diluted in mobile phase A [10 mM ammonium formate and formic acid at 100:0.2 (v/v)] and injected into the LC/MS/MS system. T-518 was analyzed in multiple reaction monitoring mode using an API4000 or API5000 instrument (Applied Biosystems, Foster City, CA, USA) equipped with a Prominence Ultra-fast liquid chromatography system (Shimadzu, Kyoto, Japan) using Shimadzu Shim- pack XR-ODS (2.2 μm, 2.0 × 30 mm) column. Mobile phase B consisted of a mixture of acetonitrile and formic acid at 100:0.2 (v/v). Chromatographic separations were performed by gradient elution at a flow rate of 0.7 mL/min. Mobile phase B was held at 5% for 0.2 min, increased linearly to 99% for 1.1 min, maintained at 99% for 0.7 min, then returned to 5% in 0.01 min, followed by re-equilibration for 0.59 min. A multiple reaction monitoring was used to detect the parent and product ions for the tandem mass spectrometry of T-518, which were corresponding to m/z 494 and m/z 374, respectively, with the negative ion mode [DP; -40, EP; -10, CE; -35, CXP; -15 (arbitrary units)]. Analyst software TM (version 1.6.2) (AB SCIEX, Framingham, MA; https://sciex.com/products/software/analyst-software) was used for data acquisition and processing.

O=C1c2cc(-c3nnc(C(F)F)o3)cnc2CN1[C@@H]1CCCC[C@H]1NC(=O)C(F)(F)C(F)(F)F [T-518, N-[(1R,2R)-2-{3-[5-(difluoromethyl)-1,3,4-oxadiazol-2-yl]-5-oxo-5H,6H,7H-pyrrolo[3,4-b]pyridin-6-yl}cyclohexyl]-2,2,3,3,3-pentafluoropropanamide]
effect on Histone H3 acetylation [1]: neither T-518 nor Tubastatin A at 3 and 30 μM demonstrates this activity | novel object recognition deficit (preference ratio) (P301S tau Tg mice): dose-dependently ameliorated | average exposure in 24 h in hippocampus ([2]; Fu,b 0.4): ~17 nM | Hippocampus AUC0–24 h ([2]; C57BL mice): 202 ng·h/g | Cmax ([2]; C57BL, mouse, hippocampus, Fu,b 0.4, read-out: Effective Cmax in hippocampus): ~291 nM | Tmax ([2]; C57BL, mouse, plasma and hippocampus, matrix not given, read-out: Tmax of a single oral dose): ≤ 15 min | Cmax ([2]; mouse, hippocampus, C57BL mice, read-out: Hippocampus Cmax): 144 ng/g | MRT ([2]; mouse, hippocampus, C57BL mice, read-out: Hippocampus MRT): 79.8 min | Tmax ([2]; mouse, hippocampus, C57BL mice, read-out: Hippocampus Tmax): 15 min | AUC(0-t) ([2]; mouse, plasma, C57BL mice, read-out: Plasma AUC0–24 h): 1720 ng·h/mL | Cmax ([2]; mouse, plasma, C57BL mice, read-out: Plasma Cmax): 1040 ng/mL | MRT ([2]; mouse, plasma, C57BL mice, read-out: Plasma MRT): 106 min | Tmax ([2]; mouse, plasma, C57BL mice, read-out: Plasma Tmax): 15 min
